Measured values taken from ChEMBL document CHEMBL3044736, “Synthesis, characterization, solvatochromic properties, and antimicrobial evaluation of 5-acetyl-2-thioxo-dihydro-pyrimidine-4,6-dione-based chalcones” (2013).
Converted amounts (≈) assume the structure as drawn.

Tests used:
Assay type in all cases: functional
Pseudomonas aeruginosa [1] = experiment: Antimicrobial activity against Pseudomonas aeruginosa MTCC 1688 assessed as diameter of growth inhibition zone at 50 ug/ml after 18-24 hr by agar cup diffusion method; settings: read-out: DIZ
Streptococcus pyogenes [2] = experiment: Antimicrobial activity against Streptococcus pyogenes MTCC 442 assessed as diameter of growth inhibition zone at 100 ug/ml after 18-24 hr by agar cup diffusion method; settings: read-out: DIZ
Trichophyton rubrum [3] = experiment: Antimicrobial activity against Trichophyton rubrum MTCC 296 by agar cup diffusion method
Candida albicans [4] = experiment: Antimicrobial activity against Candida albicans MTCC 227 assessed as diameter of growth inhibition zone at 25 ug/ml after 48-96 hr by agar cup diffusion method; settings: read-out: DIZ
Candida albicans [5] = experiment: Antimicrobial activity against Candida albicans MTCC 227 assessed as diameter of growth inhibition zone at 250 ug/ml after 48-96 hr by agar cup diffusion method; settings: read-out: DIZ
Escherichia coli [6] = experiment: Antimicrobial activity against Escherichia coli MTCC 443 by agar cup diffusion method
Penicillium [7] = experiment: Antimicrobial activity against Penicillium wild strain assessed as diameter of growth inhibition zone at 25 ug/ml after 48-96 hr by agar cup diffusion method; settings: read-out: DIZ
Pseudomonas aeruginosa [8] = experiment: Antimicrobial activity against Pseudomonas aeruginosa MTCC 1688 assessed as diameter of growth inhibition zone at 25 ug/ml after 18-24 hr by agar cup diffusion method; settings: read-out: DIZ
Aspergillus clavatus [9] = experiment: Antimicrobial activity against Aspergillus clavatus MTCC 1323 by agar cup diffusion method
Penicillium [10] = experiment: Antimicrobial activity against Penicillium wild strain by agar cup diffusion method
Staphylococcus aureus [11] = experiment: Antimicrobial activity against Staphylococcus aureus MTCC 96 assessed as diameter of growth inhibition zone at 100 ug/ml after 18-24 hr by agar cup diffusion method; settings: read-out: DIZ
Klebsiella pneumoniae [12] = experiment: Antimicrobial activity against Klebsiella pneumoniae MTCC 109 assessed as diameter of growth inhibition zone at 25 ug/ml after 18-24 hr by agar cup diffusion method; settings: read-out: DIZ
Trichophyton rubrum [13] = experiment: Antimicrobial activity against Trichophyton rubrum MTCC 296 assessed as diameter of growth inhibition zone at 50 ug/ml after 48-96 hr by agar cup diffusion method; settings: read-out: DIZ
Streptococcus pyogenes [14] = experiment: Antimicrobial activity against Streptococcus pyogenes MTCC 442 by agar cup diffusion method
Aspergillus clavatus [15] = experiment: Antimicrobial activity against Aspergillus clavatus MTCC 1323 assessed as diameter of growth inhibition zone at 100 ug/ml after 48-96 hr by agar cup diffusion method; settings: read-out: DIZ
Aspergillus clavatus [16] = experiment: Antimicrobial activity against Aspergillus clavatus MTCC 1323 assessed as diameter of growth inhibition zone at 250 ug/ml after 48-96 hr by agar cup diffusion method; settings: read-out: DIZ
Pseudomonas aeruginosa [17] = experiment: Antimicrobial activity against Pseudomonas aeruginosa MTCC 1688 assessed as diameter of growth inhibition zone at 100 ug/ml after 18-24 hr by agar cup diffusion method; settings: read-out: DIZ
Streptococcus pyogenes [18] = experiment: Antimicrobial activity against Streptococcus pyogenes MTCC 442 assessed as diameter of growth inhibition zone at 250 ug/ml after 18-24 hr by agar cup diffusion method; settings: read-out: DIZ
Escherichia coli [19] = experiment: Antimicrobial activity against Escherichia coli MTCC 443 assessed as diameter of growth inhibition zone at 250 ug/ml after 18-24 hr by agar cup diffusion method; settings: read-out: DIZ
Aspergillus clavatus [20] = experiment: Antimicrobial activity against Aspergillus clavatus MTCC 1323 assessed as diameter of growth inhibition zone at 50 ug/ml after 48-96 hr by agar cup diffusion method; settings: read-out: DIZ
Escherichia coli [21] = experiment: Antimicrobial activity against Escherichia coli MTCC 443 assessed as diameter of growth inhibition zone at 50 ug/ml after 18-24 hr by agar cup diffusion method; settings: read-out: DIZ
Penicillium [22] = experiment: Antimicrobial activity against Penicillium wild strain assessed as diameter of growth inhibition zone at 250 ug/ml after 48-96 hr by agar cup diffusion method; settings: read-out: DIZ
Candida albicans [23] = experiment: Antimicrobial activity against Candida albicans MTCC 227 assessed as diameter of growth inhibition zone at 50 ug/ml after 48-96 hr by agar cup diffusion method; settings: read-out: DIZ
Klebsiella pneumoniae [24] = experiment: Antimicrobial activity against Klebsiella pneumoniae MTCC 109 assessed as diameter of growth inhibition zone at 250 ug/ml after 18-24 hr by agar cup diffusion method; settings: read-out: DIZ
Klebsiella pneumoniae [25] = experiment: Antimicrobial activity against Klebsiella pneumoniae MTCC 109 by agar cup diffusion method
Pseudomonas aeruginosa [26] = experiment: Antimicrobial activity against Pseudomonas aeruginosa MTCC 1688 assessed as diameter of growth inhibition zone at 250 ug/ml after 18-24 hr by agar cup diffusion method; settings: read-out: DIZ
Klebsiella pneumoniae [27] = experiment: Antimicrobial activity against Klebsiella pneumoniae MTCC 109 assessed as diameter of growth inhibition zone at 50 ug/ml after 18-24 hr by agar cup diffusion method; settings: read-out: DIZ
Staphylococcus aureus [28] = experiment: Antimicrobial activity against Staphylococcus aureus MTCC 96 assessed as diameter of growth inhibition zone at 25 ug/ml after 18-24 hr by agar cup diffusion method; settings: read-out: DIZ
Trichophyton rubrum [29] = experiment: Antimicrobial activity against Trichophyton rubrum MTCC 296 assessed as diameter of growth inhibition zone at 25 ug/ml after 48-96 hr by agar cup diffusion method; settings: read-out: DIZ
Escherichia coli [30] = experiment: Antimicrobial activity against Escherichia coli MTCC 443 assessed as diameter of growth inhibition zone at 25 ug/ml after 18-24 hr by agar cup diffusion method; settings: read-out: DIZ
Penicillium [31] = experiment: Antimicrobial activity against Penicillium wild strain assessed as diameter of growth inhibition zone at 50 ug/ml after 48-96 hr by agar cup diffusion method; settings: read-out: DIZ
Candida albicans [32] = experiment: Antimicrobial activity against Candida albicans MTCC 227 by agar cup diffusion method
Staphylococcus aureus [33] = experiment: Antimicrobial activity against Staphylococcus aureus MTCC 96 assessed as diameter of growth inhibition zone at 50 ug/ml after 18-24 hr by agar cup diffusion method; settings: read-out: DIZ
Staphylococcus aureus [34] = experiment: Antimicrobial activity against Staphylococcus aureus MTCC 96 by agar cup diffusion method
Staphylococcus aureus [35] = experiment: Antimicrobial activity against Staphylococcus aureus MTCC 96 assessed as diameter of growth inhibition zone at 250 ug/ml after 18-24 hr by agar cup diffusion method; settings: read-out: DIZ
Aspergillus clavatus [36] = experiment: Antimicrobial activity against Aspergillus clavatus MTCC 1323 assessed as diameter of growth inhibition zone at 25 ug/ml after 48-96 hr by agar cup diffusion method; settings: read-out: DIZ
Trichophyton rubrum [37] = experiment: Antimicrobial activity against Trichophyton rubrum MTCC 296 assessed as diameter of growth inhibition zone at 250 ug/ml after 48-96 hr by agar cup diffusion method; settings: read-out: DIZ
Streptococcus pyogenes [38] = experiment: Antimicrobial activity against Streptococcus pyogenes MTCC 442 assessed as diameter of growth inhibition zone at 25 ug/ml after 18-24 hr by agar cup diffusion method; settings: read-out: DIZ
Klebsiella pneumoniae [39] = experiment: Antimicrobial activity against Klebsiella pneumoniae MTCC 109 assessed as diameter of growth inhibition zone at 100 ug/ml after 18-24 hr by agar cup diffusion method; settings: read-out: DIZ
Candida albicans [40] = experiment: Antimicrobial activity against Candida albicans MTCC 227 assessed as diameter of growth inhibition zone at 100 ug/ml after 48-96 hr by agar cup diffusion method; settings: read-out: DIZ
Escherichia coli [41] = experiment: Antimicrobial activity against Escherichia coli MTCC 443 assessed as diameter of growth inhibition zone at 100 ug/ml after 18-24 hr by agar cup diffusion method; settings: read-out: DIZ
Penicillium [42] = experiment: Antimicrobial activity against Penicillium wild strain assessed as diameter of growth inhibition zone at 100 ug/ml after 48-96 hr by agar cup diffusion method; settings: read-out: DIZ
Streptococcus pyogenes [43] = experiment: Antimicrobial activity against Streptococcus pyogenes MTCC 442 assessed as diameter of growth inhibition zone at 50 ug/ml after 18-24 hr by agar cup diffusion method; settings: read-out: DIZ
Pseudomonas aeruginosa [44] = experiment: Antimicrobial activity against Pseudomonas aeruginosa MTCC 1688 by agar cup diffusion method
Trichophyton rubrum [45] = experiment: Antimicrobial activity against Trichophyton rubrum MTCC 296 assessed as diameter of growth inhibition zone at 100 ug/ml after 48-96 hr by agar cup diffusion method; settings: read-out: DIZ

O=C(/C=C/c1ccc(O)cc1)C1C(=O)NC(=S)NC1=O
zone of inhibition at 50 µg/mL (Pseudomonas aeruginosa [1]): 14 mm
zone of inhibition at 100 µg/mL (Streptococcus pyogenes [2]): 16 mm
MFC (Trichophyton rubrum [3]): > 1000 µg/mL
MIC (Trichophyton rubrum [3]): > 1000 µg/mL
zone of inhibition at 25 µg/mL (Candida albicans [4]): 16 mm
zone of inhibition at 250 µg/mL (Candida albicans [5]): 23 mm
MBC (Escherichia coli [6]): 250 µg/mL (≈ 861 µM)
MIC (Escherichia coli [6]): 250 µg/mL (≈ 861 µM)
zone of inhibition at 25 µg/mL (Penicillium [7]): 18 mm
zone of inhibition at 25 µg/mL (Pseudomonas aeruginosa [8]): 10 mm
MFC (Aspergillus clavatus [9]): 500 µg/mL (≈ 1720 µM)
MIC (Aspergillus clavatus [9]): 500 µg/mL (≈ 1720 µM)
MFC (Penicillium [10]): > 1000 µg/mL
MIC (Penicillium [10]): > 1000 µg/mL
zone of inhibition at 100 µg/mL (Staphylococcus aureus [11]): 16 mm
zone of inhibition at 25 µg/mL (Klebsiella pneumoniae [12]): 10 mm
zone of inhibition at 50 µg/mL (Trichophyton rubrum [13]): 22 mm
MBC (Streptococcus pyogenes [14]): 250 µg/mL (≈ 861 µM)
MIC (Streptococcus pyogenes [14]): 100 µg/mL (≈ 344 µM)
zone of inhibition at 100 µg/mL (Aspergillus clavatus [15]): 22 mm
zone of inhibition at 250 µg/mL (Aspergillus clavatus [16]): 24 mm
zone of inhibition at 100 µg/mL (Pseudomonas aeruginosa [17]): 16 mm
zone of inhibition at 250 µg/mL (Streptococcus pyogenes [18]): 17 mm
zone of inhibition at 250 µg/mL (Escherichia coli [19]): 17 mm
zone of inhibition at 50 µg/mL (Aspergillus clavatus [20]): 21 mm
zone of inhibition at 50 µg/mL (Escherichia coli [21]): 17 mm
zone of inhibition at 250 µg/mL (Penicillium [22]): 24 mm
zone of inhibition at 50 µg/mL (Candida albicans [23]): 20 mm
zone of inhibition at 250 µg/mL (Klebsiella pneumoniae [24]): 18 mm
MBC (Klebsiella pneumoniae [25]): 200 µg/mL (≈ 689 µM)
MIC (Klebsiella pneumoniae [25]): 125 µg/mL (≈ 431 µM)
zone of inhibition at 250 µg/mL (Pseudomonas aeruginosa [26]): 18 mm
zone of inhibition at 50 µg/mL (Klebsiella pneumoniae [27]): 11 mm
zone of inhibition at 25 µg/mL (Staphylococcus aureus [28]): 10 mm
zone of inhibition at 25 µg/mL (Trichophyton rubrum [29]): 22 mm
zone of inhibition at 25 µg/mL (Escherichia coli [30]): 15 mm
zone of inhibition at 50 µg/mL (Penicillium [31]): 19 mm
MFC (Candida albicans [32]): 500 µg/mL (≈ 1720 µM)
MIC (Candida albicans [32]): > 1000 µg/mL
zone of inhibition at 50 µg/mL (Staphylococcus aureus [33]): 14 mm
MBC (Staphylococcus aureus [34]): 500 µg/mL (≈ 1720 µM)
MIC (Staphylococcus aureus [34]): 250 µg/mL (≈ 861 µM)
zone of inhibition at 250 µg/mL (Staphylococcus aureus [35]): 18 mm
zone of inhibition at 25 µg/mL (Aspergillus clavatus [36]): 21 mm
zone of inhibition at 250 µg/mL (Trichophyton rubrum [37]): 24 mm
zone of inhibition at 25 µg/mL (Streptococcus pyogenes [38]): 15 mm
zone of inhibition at 100 µg/mL (Klebsiella pneumoniae [39]): 16 mm
zone of inhibition at 100 µg/mL (Candida albicans [40]): 23 mm
zone of inhibition at 100 µg/mL (Escherichia coli [41]): 16 mm
zone of inhibition at 100 µg/mL (Penicillium [42]): 22 mm
zone of inhibition at 50 µg/mL (Streptococcus pyogenes [43]): 17 mm
MBC (Pseudomonas aeruginosa [44]): 500 µg/mL (≈ 1720 µM)
MIC (Pseudomonas aeruginosa [44]): 250 µg/mL (≈ 861 µM)
zone of inhibition at 100 µg/mL (Trichophyton rubrum [45]): 24 mm
